From patent US9416128B2, “Fused heterocyclic compounds as ion channel modulators” (Gilead Sciences, Inc., priority 2013, dated 2016)

What was measured:
hNaV1.2 (SCN2A) = molecular target: T1, hNaV1.2 (SCN2A) (Homo sapiens, UniProt Q99250); test: Use-dependent inhibition of the CNS NaV1.2 sodium channel; type: cell-based; conditions: HEK-293, % inhibition, 25 Hz; for inhibition at 1 µM: use-dependent block at 1 uM, read-out: Nav1.2 UDB 25 Hz 1 uM; for inhibition at 10 µM: use-dependent block at 10 uM, read-out: Nav1.2 UDB 25 Hz 10 uM
T1 construct: expressed in transfected cells
T1 sequence (Q99250 whole entry): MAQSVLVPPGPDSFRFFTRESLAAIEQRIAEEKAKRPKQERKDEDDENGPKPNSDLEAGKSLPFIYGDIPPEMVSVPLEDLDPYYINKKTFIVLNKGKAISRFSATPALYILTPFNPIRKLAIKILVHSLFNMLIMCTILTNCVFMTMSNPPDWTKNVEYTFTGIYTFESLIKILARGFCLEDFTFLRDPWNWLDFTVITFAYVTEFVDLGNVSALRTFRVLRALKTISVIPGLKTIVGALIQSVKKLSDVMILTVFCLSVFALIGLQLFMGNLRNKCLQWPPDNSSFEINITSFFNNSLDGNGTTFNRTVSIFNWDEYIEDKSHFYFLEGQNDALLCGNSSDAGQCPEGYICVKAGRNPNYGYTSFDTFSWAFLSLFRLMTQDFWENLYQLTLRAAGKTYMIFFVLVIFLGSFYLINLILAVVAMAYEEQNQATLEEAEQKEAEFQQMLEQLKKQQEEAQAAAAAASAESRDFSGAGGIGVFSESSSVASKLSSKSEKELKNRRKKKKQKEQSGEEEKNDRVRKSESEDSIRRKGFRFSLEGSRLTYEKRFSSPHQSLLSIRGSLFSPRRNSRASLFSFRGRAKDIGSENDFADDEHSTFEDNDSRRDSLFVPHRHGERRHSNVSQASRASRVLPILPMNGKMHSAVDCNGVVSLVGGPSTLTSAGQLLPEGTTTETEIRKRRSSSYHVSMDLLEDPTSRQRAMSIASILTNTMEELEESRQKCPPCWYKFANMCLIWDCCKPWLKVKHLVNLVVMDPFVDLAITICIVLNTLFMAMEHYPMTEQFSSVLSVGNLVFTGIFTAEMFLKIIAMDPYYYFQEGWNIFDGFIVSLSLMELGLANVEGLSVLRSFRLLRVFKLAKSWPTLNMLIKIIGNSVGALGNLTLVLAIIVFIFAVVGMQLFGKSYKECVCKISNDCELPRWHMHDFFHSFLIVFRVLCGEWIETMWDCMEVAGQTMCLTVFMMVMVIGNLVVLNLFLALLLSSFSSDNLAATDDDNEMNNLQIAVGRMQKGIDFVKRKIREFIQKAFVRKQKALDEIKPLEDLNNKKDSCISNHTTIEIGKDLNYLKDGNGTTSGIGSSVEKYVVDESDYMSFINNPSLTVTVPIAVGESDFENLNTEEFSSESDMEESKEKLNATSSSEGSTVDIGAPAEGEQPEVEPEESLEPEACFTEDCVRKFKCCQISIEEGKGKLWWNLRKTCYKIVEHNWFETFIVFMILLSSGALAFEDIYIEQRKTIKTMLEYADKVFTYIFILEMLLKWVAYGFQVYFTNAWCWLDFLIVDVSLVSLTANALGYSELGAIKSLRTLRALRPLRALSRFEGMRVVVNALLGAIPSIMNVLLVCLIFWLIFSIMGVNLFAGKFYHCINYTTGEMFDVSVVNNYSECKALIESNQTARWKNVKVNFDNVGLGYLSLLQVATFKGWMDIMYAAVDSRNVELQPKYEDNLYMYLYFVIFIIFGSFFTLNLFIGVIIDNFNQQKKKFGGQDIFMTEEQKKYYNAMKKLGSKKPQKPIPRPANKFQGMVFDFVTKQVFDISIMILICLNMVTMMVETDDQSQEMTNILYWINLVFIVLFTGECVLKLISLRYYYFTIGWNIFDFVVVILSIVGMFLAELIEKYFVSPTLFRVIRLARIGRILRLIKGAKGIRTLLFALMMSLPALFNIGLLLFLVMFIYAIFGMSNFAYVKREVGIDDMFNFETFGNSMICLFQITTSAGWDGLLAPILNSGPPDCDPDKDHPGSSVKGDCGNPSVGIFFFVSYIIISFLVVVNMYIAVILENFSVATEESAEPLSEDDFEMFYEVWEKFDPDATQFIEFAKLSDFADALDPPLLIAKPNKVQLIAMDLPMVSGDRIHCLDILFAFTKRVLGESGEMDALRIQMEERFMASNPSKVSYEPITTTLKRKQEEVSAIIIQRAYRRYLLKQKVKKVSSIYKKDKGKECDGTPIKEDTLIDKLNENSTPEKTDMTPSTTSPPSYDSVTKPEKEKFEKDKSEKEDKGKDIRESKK
T1 sequence (Q07699 19-218 partner): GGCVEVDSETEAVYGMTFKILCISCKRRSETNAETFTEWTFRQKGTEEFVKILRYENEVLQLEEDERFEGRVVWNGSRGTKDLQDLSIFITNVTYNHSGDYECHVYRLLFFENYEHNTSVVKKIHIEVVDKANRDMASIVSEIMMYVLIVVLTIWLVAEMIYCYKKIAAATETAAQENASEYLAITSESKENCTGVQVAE
T1 sequence (O60939 30-215 partner): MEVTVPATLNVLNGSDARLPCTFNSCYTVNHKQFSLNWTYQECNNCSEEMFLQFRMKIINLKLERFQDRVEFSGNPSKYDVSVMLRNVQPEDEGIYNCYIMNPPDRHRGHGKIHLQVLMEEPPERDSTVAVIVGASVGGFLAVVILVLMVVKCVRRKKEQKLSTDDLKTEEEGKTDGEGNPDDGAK
Description: HEK-293 cells stably expressing wild-type (WT) hNaV1.2 (SCN2A NCBI # NM_021007.2, SCN1B NCBI # NM_001037.4, SCN2B NCBI # NM_004588.2) were used to record INa. Cells are maintained with standard tissue culture procedures and stable channel expression is maintained with 800 ug/mL G418 and 3 ug/mL Puromycin in the culture medium. Unless otherwise noted, all reagents are purchased from Sigma-Aldrich (St Louis, Mo., U.S.A.).
Assays measuring Use-Dependent Block (UDB) of NaV1.2 are performed on an automated electrophysiology platform, QPatch 16X or QPatch HT (Sophion Bioscience, Copenhagen, Denmark), using the whole cell patch clamp technique to measure currents through the cell membrane. Series resistance compensation is set to 100% and series resistance and whole-cell compensation are performed automatically. Currents stored in the Sophion Bioscience Oracle database (Sophion Bioscience, Copenhagen, Denmark). Analysis is performed using QPatch Assay software and data are compiled in Excel 2010 (Microsoft, Seattle, Wash., U.S.A.). The internal (pipette) solution consists of (in mM) 105 CsF, 10 NaF, 20 CsCl, 2 EGTA, 10 HEPES, 10 Dextrose with a pH of 7.35 and osmolarity of 300 mOsmol/kg. The external (bath) solution contains in (mM): 145 NaCl, 4 KCl, 1.8 CaCl2, 1 MgCl2, 10 dextrose, 10 HEPES, with a pH of 7.35 and osmolarity of 310 mOsmol/kg. Experiments are carried out at 23-25° C.
Compound stocks are routinely made by the Gilead Sample Bank in vials to 10 mM in dimethyl sulfoxide (DMSO). In some cases, when compounds are not soluble in DMSO, they are made in 100% ethanol. Stocks are sonicated as necessary. […]
Cells are allowed to stabilize for 10 min after establishment of the whole-cell configuration before current is measured. The test compound is applied 2 times at 60 second intervals. After the second compound addition, a 200 second wait period was imposed to allow for equilibration. Leak currents are subtracted by using an online P/4 procedure and all currents are low-pass Bessel filtered at 5 kHz and digitized at […].
Results are presented as mean percentage inhibition.
Use-dependent block of NaV1.2 peak current is measured during pulse number 20 of a voltage pulse train (0 mV, 20 ms, 20 pulses, 25 Hz) from a holding potential of −120 mV.
Currents are normalized to the peak current recorded in response to the first pulse in each frequency train. The voltage protocol for UDB was performed in the absence and presence of compound and percentage inhibition was calculated with respect to the compound free condition.
Data analysis is performed using QPatch Assay Software 4.0, and Excel 2002 (Microsoft, Seattle, Wash., U.S.A.).

hNaV1.1 (SCN1A) = hNaV1.1 (SCN1A) (Homo sapiens, UniProt P35498); test: Use-dependent inhibition of the CNS NaV1.1 sodium channel; type: cell-based; conditions: % inhibition, 25 Hz; for inhibition at 1 µM: use-dependent block at 1 uM, read-out: Nav1.1 UDB 25 Hz 1 uM; for inhibition at 10 µM: use-dependent block at 10 uM, read-out: Nav1.1 UDB 25 Hz 10 uM
Outline: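 Whole-cell automated patch clamp on HEK-293 cells stably expressing hNaV1.1, 23-25° C., CsF internal solution. Peak current at pulse 20 of a 25 Hz train (0 mV, 20 ms) from −120 mV, normalized to pulse 1; percentage inhibition versus compound-free condition.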

| Structure (SMILES) | inhibition at 1 µM (hNaV1.2 (SCN2A)) [%] | inhibition at 10 µM (hNaV1.2 (SCN2A)) [%] | inhibition at 1 µM (hNaV1.1 (SCN1A)) [%] | inhibition at 10 µM (hNaV1.1 (SCN1A)) [%] |
| --- | --- | --- | --- | --- |
| Cc1cccc(CN2Cc3cc(-c4ccc(OC(F)(F)F)cc4F)ccc3OC2=O)n1 [Example 47, 6-(2-fluoro-4-(trifluoromethoxy)phenyl)-3-((6-methylpyridin-2-yl)methyl)-3,4-dihydro-2H-benzo[e][1,3]oxazin-2-one] | 14.1 | 55.6 | < 5 | 69.2 |
| CCCOc1cc(C(F)(F)F)ccc1-c1ccc2c(c1)CN(CCc1ncccn1)C(=O)O2 [Example 19, 6-(2-propoxy-4-(trifluoromethyl)phenyl)-3-(2-(pyrimidin-2-yl)ethyl)-3,4-dihydro-2H-benzo[e][1,3]oxazin-2-one] | 30.6 | 64 | 30.8 | 78.4 |
| CCCOc1cc(OC(F)(F)F)ccc1-c1ccc2c(c1)CN(Cc1ncccn1)C(=O)O2 [Example 28, 6-(2-propoxy-4-(trifluoromethoxy)phenyl)-3-(pyrimidin-2-ylmethyl)-3,4-dihydro-2H-benzo[e][1,3]oxazin-2-one] | 17.1 | 58 | 25.2 | 67.4 |
| Cc1ccnc(CN2Cc3cc(-c4ccc(C(F)(F)F)cc4)ccc3OC2=O)n1 [Example 30, 3-((4-methylpyrimidin-2-yl)methyl)-6-(4-(trifluoromethyl)phenyl)-3,4-dihydro-2H-benzo[e][1,3]oxazin-2-one] | 47.1 | 79.6 | 49.7 | 87.5 |
| CCOc1cc(C(F)(F)F)ccc1-c1ccc2c(c1)CN(Cc1ncccn1)C(=O)O2 [Example 35, 6-(2-ethoxy-4-(trifluoromethyl)phenyl)-3-(pyrimidin-2-ylmethyl)-3,4-dihydro-2H-benzo[e][1,3]oxazin-2-one] | 39.3 | 75.1 | 37.6 | 80.4 |
| Cc1cccc(CN2Cc3cc(-c4ccc(C(F)(F)F)cc4F)ccc3OC2=O)n1 [Example 45, 6-(2-fluoro-4-(trifluoromethyl)phenyl)-3-((6-methylpyridin-2-yl)methyl)-3,4-dihydro-2H-benzo[e][1,3]oxazin-2-one] | 10.4 | 62.3 | 19.9 | 72.8 |
| COc1cc(OC(F)(F)F)ccc1-c1ccc2c(c1)CN(Cc1cccc(C)n1)C(=O)O2 [Example 46, 6-(2-methoxy-4-(trifluoromethoxy)phenyl)-3-((6-methylpyridin-2-yl)methyl)-3,4-dihydro-2H-benzo[e][1,3]oxazin-2-one] | 22.4 | 77.2 | 19 | 78.6 |
| Cc1cnc(CN2Cc3cc(-c4ccc(C(F)(F)F)cc4F)ccc3OC2=O)nc1 [Example 41, 6-(2-fluoro-4-(trifluoromethyl)phenyl)-3-((5-methylpyrimidin-2-yl)methyl)-3,4-dihydro-2H-benzo[e][1,3]oxazin-2-one] | 7.1 | 36.2 | < 5 | 29 |
| COc1cc(OC(F)(F)F)ccc1-c1ccc2c(c1)CN(Cc1nc(C)cs1)C(=O)O2 [Example 58, 6-(2-methoxy-4-(trifluoromethoxy)phenyl)-3-((4-methylthiazol-2-yl)methyl)-3,4-dihydro-2H-benzo[e][1,3]oxazin-2-one] | 10.6 | 58.7 | 7.8 | 68.7 |
| COc1cc(OC(F)(F)F)ccc1-c1ccc2c(c1)CN(Cc1ncccn1)C(=O)O2 [Example 9, 6-(2-methoxy-4-(trifluoromethoxy)phenyl)-3-(pyrimidin-2-ylmethyl)-3,4-dihydro-2H-benzo[e][1,3]oxazin-2-one] | 7.9 | 37 | < 5 | 34.4 |
| Cc1csc(CN2Cc3cc(-c4ccc(OC(F)(F)F)cc4Cl)ccc3OC2=O)n1 [Example 57, 6-(2-chloro-4-(trifluoromethoxy)phenyl)-3-((4-methylthiazol-2-yl)methyl)-3,4-dihydro-2H-benzo[e][1,3]oxazin-2-one] | 12.8 | 61.5 | < 5 | 48.8 |
| COc1cc(C(F)(F)F)ccc1-c1ccc2c(c1)CN(Cc1cccc(C)n1)C(=O)O2 [Example 44, 6-(2-methoxy-4-(trifluoromethyl)phenyl)-3-((6-methylpyridin-2-yl)methyl)-3,4-dihydro-2H-benzo[e][1,3]oxazin-2-one] | 20.9 | 68.4 | 25 | 84.5 |
| O=C1Oc2ccc(-c3ccc(C4(C(F)(F)F)CC4)cc3)cc2CN1Cc1ncccn1 [Example 38, 3-(pyrimidin-2-ylmethyl)-6-(4-(1-(trifluoromethyl)cyclopropyl)phenyl)-3,4-dihydro-2H-benzo[e][1,3]oxazin-2-one] | 34.1 | 71.8 | 49 | 78.1 |
| Cc1cc(OC(F)(F)F)ccc1-c1ccc2c(c1)CN(Cc1ncccn1)C(=O)O2 [Example 8, 6-(2-methyl-4-(trifluoromethoxy)phenyl)-3-(pyrimidin-2-ylmethyl)-3,4-dihydro-2H-benzo[e][1,3]oxazin-2-one] | < 5 | 11 | < 5 | 11.6 |
| CC(C)Oc1cc(OC(F)(F)F)ccc1-c1ccc2c(c1)CN(Cc1ncccn1)C(=O)O2 [Example 39, 6-(2-isopropoxy-4-(trifluoromethoxy)phenyl)-3-(pyrimidin-2-ylmethyl)-3,4-dihydro-2H-benzo[e][1,3]oxazin-2-one] | 16 | 59.3 | 39.1 | 73.4 |
| COc1cc(OC(F)(F)F)ccc1-c1ccc2c(c1)CN(Cc1ccccn1)C(=O)O2 [Example 22, 6-(2-methoxy-4-(trifluoromethoxy)phenyl)-3-(pyridin-2-ylmethyl)-3,4-dihydro-2H-benzo[e][1,3]oxazin-2-one] | < 5 | 55.6 | < 5 | 56.3 |
| COc1cc(OC(F)(F)F)ccc1-c1ccc2c(c1)CN(CCc1ncccn1)C(=O)O2 [Example 18, 6-(2-methoxy-4-(trifluoromethoxy)phenyl)-3-(2-(pyrimidin-2-yl)ethyl)-3,4-dihydro-2H-benzo[e][1,3]oxazin-2-one] | 9.1 | 54.9 | 16.9 | 73.4 |
| Cc1cnc(CN2Cc3cc(-c4ccc(OC(F)(F)F)cc4F)ccc3OC2=O)nc1 [Example 14, 6-(2-fluoro-4-(trifluoromethoxy)phenyl)-3-((5-methylpyrimidin-2-yl)methyl)-3,4-dihydro-2H-benzo[e][1,3]oxazin-2-one] | < 5 | 59.9 | < 5 | 43.8 |
| Cc1cc(-c2ccc3c(c2)CN(Cc2ncccn2)C(=O)O3)ccc1OC(F)(F)F [Example 5, 6-(3-methyl-4-(trifluoromethoxy)phenyl)-3-(pyrimidin-2-ylmethyl)-3,4-dihydro-2H-benzo[e][1,3]oxazin-2-one] | < 5 | 24.9 | < 5 | 15.3 |
